# Test results published in patent US10947196B2, “Beta adrenergic agonist and methods of using the same” (CURASEN THERAPEUTICS, INC., priority 2019, dated 2021).
# pEC50: −log10 of the molar value.
# Target: β2 adrenergic receptors in human astrocytoma cells (1321N1) (Homo sapiens (Human), UniProt P07550)
# Assay: cAMP HTRF assay in human astrocytoma cells (1321N1)
# Format: cell-based
# Settings: Endogenous receptor; 1321N1 cells
# Procedure, shortened: (§1)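 Intracellular cAMP quantified by Eu-donor/d2-acceptor HTRF after 30 min compound exposure at 37° C in stimulation buffer with IBMX. Concentrations ran 10 μM top, 5-fold steps, 10 points. Cell lines: 1321N1 astrocytoma and CHO expressing β1 or β2; EC50 via four-parameter fit, relative efficacy against isoproterenol.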
# Chain of β2 adrenergic receptors in human astrocytoma cells (1321N1) (P07550 whole entry): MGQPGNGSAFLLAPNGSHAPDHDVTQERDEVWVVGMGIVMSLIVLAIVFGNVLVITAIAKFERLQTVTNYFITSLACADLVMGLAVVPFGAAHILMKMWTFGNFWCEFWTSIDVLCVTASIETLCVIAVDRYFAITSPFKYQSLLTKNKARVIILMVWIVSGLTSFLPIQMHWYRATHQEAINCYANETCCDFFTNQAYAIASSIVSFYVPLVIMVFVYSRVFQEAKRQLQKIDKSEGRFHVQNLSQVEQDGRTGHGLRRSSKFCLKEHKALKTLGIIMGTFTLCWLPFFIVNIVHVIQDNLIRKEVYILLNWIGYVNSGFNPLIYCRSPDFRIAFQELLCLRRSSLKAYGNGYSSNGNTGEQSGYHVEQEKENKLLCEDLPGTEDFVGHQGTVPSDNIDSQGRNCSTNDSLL
row,Compound,Average pEC50 [Receptor subtype: Endogenous; Cell type: 1321N1]
1,COc1ncccc1[C@@H](O)CNC(C)(C)C [Compound 03-59],A (A > 8)

# Same assay, conditions: Endogenous receptor; 1321N1 cells; read-out: Average EC50 [Receptor subtype: Endogenous; Cell type: 1321N1]
row,Compound,pEC50
1,COc1ncccc1[C@@H](O)CNC(C)(C)C [Compound 03-59],> 8.00

# Same assay, conditions: Endogenous receptor; 1321N1 cells; read-out: Average pEC50 [Receptor subtype: Endogenous; Cell type: 1321N1] (converted)
row,Compound,EC50 [µM]
1,CC(C)(C)NC[C@H](O)c1ccc(C(F)(F)F)cn1 [Compound 03-126],0.01 to 0.1
2,Cc1ccc([C@@H](O)CNC(C)(C)C)nc1 [Compound 03-127],0.01 to 0.1
3,CNc1cccc([C@@H](O)CNC(C)(C)C)n1 [Compound 03-141],0.01 to 0.1
4,CC(C)(C)NC[C@H](O)c1cccc(C2CCC2)n1 [Compound 03-161],< 0.01
5,Cc1ccc([C@@H](O)CNC(C)(C)C)nc1C(F)(F)F [Compound 03-167],< 0.01
6,Cc1ccc([C@H](O)CNC(C)(C)C)nc1C(F)(F)F [Compound 03-168],0.1 to 1
7,CC(C)(C)NC[C@H](O)c1cccc(C(C)(F)F)n1 [Compound 03-169],0.1 to 1
8,CC(C)(C)NC[C@H](O)c1cccc(N2CCCC2)n1 [Compound 03-173],< 0.01
9,CC(C)c1cccc([C@@H](O)CNC(C)(C)C)n1 [Compound 03-175],< 0.01
10,CCOc1cccc([C@@H](O)CNC(C)(C)C)n1 [Compound 03-177],< 0.01
11,CC(C)Oc1cccc([C@@H](O)CNC(C)(C)C)n1 [Compound 03-179],< 0.01
12,COc1ccc(CC(C)(C)NC[C@H](O)c2cccc(C(F)(F)F)n2)cc1 [Compound 03-182],< 0.01
13,CC(C)(COc1ccccc1)NC[C@H](O)c1cccc(C(F)(F)F)n1 [Compound 03-184],0.01 to 0.1
14,CC(C)(C)NCC(O)c1cncc(Cl)n1 (stereo not drawn) [Compound 03-219],> 1

# Target: B3-AR (Homo sapiens (Human), UniProt P13945)
# Sequence (P13945 whole entry, species assumed): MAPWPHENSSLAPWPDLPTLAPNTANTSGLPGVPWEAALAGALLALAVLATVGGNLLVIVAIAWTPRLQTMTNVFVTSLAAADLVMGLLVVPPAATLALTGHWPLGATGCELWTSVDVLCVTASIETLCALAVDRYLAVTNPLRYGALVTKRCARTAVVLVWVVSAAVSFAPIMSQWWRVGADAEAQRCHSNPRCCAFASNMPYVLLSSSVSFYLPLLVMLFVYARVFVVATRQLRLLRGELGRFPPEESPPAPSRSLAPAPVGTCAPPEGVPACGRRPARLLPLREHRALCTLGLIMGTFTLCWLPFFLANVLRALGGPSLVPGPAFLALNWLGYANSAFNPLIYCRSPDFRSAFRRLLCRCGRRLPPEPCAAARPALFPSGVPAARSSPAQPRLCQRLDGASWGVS
# Assay: cAMP potency assay, B3-AR expressing CHO-K1 cells
# Format: cell-based
# Settings: not given
row,Compound,Average pEC50 [Receptor subtype: B3-AR; Cell type: CHO-K1]
1,COc1ncccc1[C@@H](O)CNC(C)(C)C [Compound 03-59],C (C = <7-6)

# Same assay, conditions: read-out: Average EC50 [Receptor subtype: B3-AR, Cell type: CHO-K1]
row,Compound,pEC50
1,COc1ncccc1[C@@H](O)CNC(C)(C)C [Compound 03-59],6.00 to 7.00

# Same assay, conditions: read-out: Average pEC50 [Receptor subtype: B3-AR, Cell type: CHO-K1] (converted)
row,Compound,EC50 [µM]
1,CC(C)(C)NC[C@H](O)c1ccc(C(F)(F)F)cn1 [Compound 03-126],0.1 to 1
2,Cc1ccc([C@@H](O)CNC(C)(C)C)nc1 [Compound 03-127],> 1
3,CNc1cccc([C@@H](O)CNC(C)(C)C)n1 [Compound 03-141],> 1
4,CC(C)(C)NC[C@H](O)c1cccc(C2CCC2)n1 [Compound 03-161],0.1 to 1
5,Cc1ccc([C@@H](O)CNC(C)(C)C)nc1C(F)(F)F [Compound 03-167],> 1
6,Cc1ccc([C@H](O)CNC(C)(C)C)nc1C(F)(F)F [Compound 03-168],0.1 to 1
7,CC(C)(C)NC[C@H](O)c1cccc(C(C)(F)F)n1 [Compound 03-169],> 1
8,CC(C)(C)NC[C@H](O)c1cccc(N2CCCC2)n1 [Compound 03-173],> 1
9,CC(C)c1cccc([C@@H](O)CNC(C)(C)C)n1 [Compound 03-175],> 1
10,CCOc1cccc([C@@H](O)CNC(C)(C)C)n1 [Compound 03-177],0.1 to 1
11,CC(C)Oc1cccc([C@@H](O)CNC(C)(C)C)n1 [Compound 03-179],0.1 to 1
12,COc1ccc(CC(C)(C)NC[C@H](O)c2cccc(C(F)(F)F)n2)cc1 [Compound 03-182],0.1 to 1
13,CC(C)(COc1ccccc1)NC[C@H](O)c1cccc(C(F)(F)F)n1 [Compound 03-184],0.1 to 1
14,CC(C)(C)NCC(O)c1cncc(Cl)n1 (stereo not drawn) [Compound 03-219],0.1 to 1

# Target: β1-adrenergic receptor (Homo sapiens (Human), UniProt P08588)
# Sequence (P08588 whole entry, species assumed): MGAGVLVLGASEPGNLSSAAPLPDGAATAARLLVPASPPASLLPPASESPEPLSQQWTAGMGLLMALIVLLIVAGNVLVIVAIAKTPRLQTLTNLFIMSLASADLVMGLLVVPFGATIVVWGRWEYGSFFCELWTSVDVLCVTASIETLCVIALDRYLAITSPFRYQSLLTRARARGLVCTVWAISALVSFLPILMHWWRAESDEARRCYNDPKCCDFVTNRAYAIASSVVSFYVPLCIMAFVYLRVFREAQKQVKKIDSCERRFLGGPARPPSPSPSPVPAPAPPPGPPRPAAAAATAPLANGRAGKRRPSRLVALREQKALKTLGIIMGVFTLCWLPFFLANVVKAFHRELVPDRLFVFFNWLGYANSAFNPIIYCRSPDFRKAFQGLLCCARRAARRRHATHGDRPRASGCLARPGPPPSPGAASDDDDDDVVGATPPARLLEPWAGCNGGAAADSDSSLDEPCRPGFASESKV
# Assay: cAMP Gs dynamic HTRF assay, β1 expressing CHO cells
# Format: cell-based
# Settings: B1-AR; CHO-K1 (HitHunter)
# Procedure, shortened: as §1
row,Compound,Average pEC50 [Receptor subtype: B1-AR; Cell type: CHO-K1 (HitHunter)]
1,CC(C)(C)NC[C@H](O)c1cccc(C2CCC2)n1 [Compound 03-161],A (A > 8)
2,CC(C)(C)NC[C@H](O)c1cccc(C(C)(F)F)n1 [Compound 03-169],B (B = 8-7)
3,CC(C)Oc1cccc([C@@H](O)CNC(C)(C)C)n1 [Compound 03-179],C (C = <7-6)
4,CC(C)(COc1ccccc1)NC[C@H](O)c1cccc(C(F)(F)F)n1 [Compound 03-184],B (B = 8-7)

# Same assay, conditions: B1-AR; CHO-K1 (HitHunter); read-out: Average pEC50 [Receptor subtype: B1-AR; Cell type: CHO-K1 (HitHunter)] (converted)
row,Compound,EC50 [µM]
1,COc1ncccc1[C@@H](O)CNC(C)(C)C [Compound 03-59],< 0.01
2,CC(C)(C)NC[C@H](O)c1ccc(C(F)(F)F)cn1 [Compound 03-126],0.01 to 0.1
3,Cc1ccc([C@@H](O)CNC(C)(C)C)nc1 [Compound 03-127],0.01 to 0.1
4,CNc1cccc([C@@H](O)CNC(C)(C)C)n1 [Compound 03-141],0.01 to 0.1
5,Cc1ccc([C@@H](O)CNC(C)(C)C)nc1C(F)(F)F [Compound 03-167],< 0.01
6,Cc1ccc([C@H](O)CNC(C)(C)C)nc1C(F)(F)F [Compound 03-168],0.01 to 0.1
7,CC(C)(C)NC[C@H](O)c1cccc(N2CCCC2)n1 [Compound 03-173],0.1 to 1
8,CC(C)c1cccc([C@@H](O)CNC(C)(C)C)n1 [Compound 03-175],0.01 to 0.1
9,CCOc1cccc([C@@H](O)CNC(C)(C)C)n1 [Compound 03-177],0.01 to 0.1
10,COc1ccc(CC(C)(C)NC[C@H](O)c2cccc(C(F)(F)F)n2)cc1 [Compound 03-182],0.01 to 0.1
11,CC(C)(C)NCC(O)c1cncc(Cl)n1 (stereo not drawn) [Compound 03-219],0.1 to 1

# Same assay, conditions: B1-AR; CHO-K cells; read-out: Average EC50 [Receptor subtype: B1-AR; Cell type: CHO-K]
row,Compound,pEC50
1,COc1ncccc1[C@@H](O)CNC(C)(C)C [Compound 03-59],> 8.00
2,CC(C)(C)NC[C@H](O)c1ccc(C(F)(F)F)cn1 [Compound 03-126],7.00 to 8.00
3,Cc1ccc([C@@H](O)CNC(C)(C)C)nc1 [Compound 03-127],7.00 to 8.00
4,CNc1cccc([C@@H](O)CNC(C)(C)C)n1 [Compound 03-141],6.00 to 7.00
5,CC(C)(C)NC[C@H](O)c1cccc(C2CCC2)n1 [Compound 03-161],> 8.00
6,Cc1ccc([C@@H](O)CNC(C)(C)C)nc1C(F)(F)F [Compound 03-167],> 8.00
7,Cc1ccc([C@H](O)CNC(C)(C)C)nc1C(F)(F)F [Compound 03-168],7.00 to 8.00
8,CC(C)(C)NC[C@H](O)c1cccc(C(C)(F)F)n1 [Compound 03-169],7.00 to 8.00
9,CC(C)(C)NC[C@H](O)c1cccc(N2CCCC2)n1 [Compound 03-173],6.00 to 7.00
10,CC(C)c1cccc([C@@H](O)CNC(C)(C)C)n1 [Compound 03-175],7.00 to 8.00
11,CCOc1cccc([C@@H](O)CNC(C)(C)C)n1 [Compound 03-177],7.00 to 8.00
12,CC(C)Oc1cccc([C@@H](O)CNC(C)(C)C)n1 [Compound 03-179],6.00 to 7.00
13,COc1ccc(CC(C)(C)NC[C@H](O)c2cccc(C(F)(F)F)n2)cc1 [Compound 03-182],7.00 to 8.00
14,CC(C)(COc1ccccc1)NC[C@H](O)c1cccc(C(F)(F)F)n1 [Compound 03-184],7.00 to 8.00

# Target: β2 adrenergic receptor (Homo sapiens (Human), UniProt P07550)
# Sequence (P07550 whole entry, species assumed): as the sequence (P07550 whole entry) above
# Assay: cAMP Gs dynamic HTRF assay, β2 expressing CHO cells
# Format: cell-based
# Settings: B2-AR; CHO-K1 (HitHunter); read-out: Average pEC50 [Receptor subtype: B2-AR; Cell type: CHO-K1 (HitHunter)] (converted)
# Procedure, shortened: as §1
row,Compound,EC50 [µM]
1,COc1ncccc1[C@@H](O)CNC(C)(C)C [Compound 03-59],< 0.01
2,CC(C)(C)NC[C@H](O)c1ccc(C(F)(F)F)cn1 [Compound 03-126],0.01 to 0.1
3,Cc1ccc([C@@H](O)CNC(C)(C)C)nc1 [Compound 03-127],0.01 to 0.1
4,CNc1cccc([C@@H](O)CNC(C)(C)C)n1 [Compound 03-141],< 0.01
5,CC(C)(C)NC[C@H](O)c1cccc(C2CCC2)n1 [Compound 03-161],< 0.01
6,Cc1ccc([C@@H](O)CNC(C)(C)C)nc1C(F)(F)F [Compound 03-167],< 0.01
7,Cc1ccc([C@H](O)CNC(C)(C)C)nc1C(F)(F)F [Compound 03-168],0.01 to 0.1
8,CC(C)(C)NC[C@H](O)c1cccc(C(C)(F)F)n1 [Compound 03-169],< 0.01
9,CC(C)(C)NC[C@H](O)c1cccc(N2CCCC2)n1 [Compound 03-173],< 0.01
10,CC(C)c1cccc([C@@H](O)CNC(C)(C)C)n1 [Compound 03-175],< 0.01
11,CCOc1cccc([C@@H](O)CNC(C)(C)C)n1 [Compound 03-177],< 0.01
12,CC(C)Oc1cccc([C@@H](O)CNC(C)(C)C)n1 [Compound 03-179],< 0.01
13,COc1ccc(CC(C)(C)NC[C@H](O)c2cccc(C(F)(F)F)n2)cc1 [Compound 03-182],< 0.01
14,CC(C)(COc1ccccc1)NC[C@H](O)c1cccc(C(F)(F)F)n1 [Compound 03-184],0.01 to 0.1
15,CC(C)(C)NCC(O)c1cncc(Cl)n1 (stereo not drawn) [Compound 03-219],0.1 to 1

# Same assay, conditions: B2-AR; CHO-K cells; read-out: Average EC50 [Receptor subtype: B2-AR; Cell type: CHO-K]
row,Compound,pEC50
1,COc1ncccc1[C@@H](O)CNC(C)(C)C [Compound 03-59],> 8.00
2,CC(C)(C)NC[C@H](O)c1ccc(C(F)(F)F)cn1 [Compound 03-126],7.00 to 8.00
3,Cc1ccc([C@@H](O)CNC(C)(C)C)nc1 [Compound 03-127],7.00 to 8.00
4,CNc1cccc([C@@H](O)CNC(C)(C)C)n1 [Compound 03-141],> 8.00
5,CC(C)(C)NC[C@H](O)c1cccc(C2CCC2)n1 [Compound 03-161],> 8.00
6,Cc1ccc([C@@H](O)CNC(C)(C)C)nc1C(F)(F)F [Compound 03-167],> 8.00
7,Cc1ccc([C@H](O)CNC(C)(C)C)nc1C(F)(F)F [Compound 03-168],7.00 to 8.00
8,CC(C)(C)NC[C@H](O)c1cccc(C(C)(F)F)n1 [Compound 03-169],> 8.00
9,CC(C)(C)NC[C@H](O)c1cccc(N2CCCC2)n1 [Compound 03-173],> 8.00
10,CC(C)c1cccc([C@@H](O)CNC(C)(C)C)n1 [Compound 03-175],> 8.00
11,CCOc1cccc([C@@H](O)CNC(C)(C)C)n1 [Compound 03-177],> 8.00
12,CC(C)Oc1cccc([C@@H](O)CNC(C)(C)C)n1 [Compound 03-179],> 8.00
13,COc1ccc(CC(C)(C)NC[C@H](O)c2cccc(C(F)(F)F)n2)cc1 [Compound 03-182],> 8.00
14,CC(C)(COc1ccccc1)NC[C@H](O)c1cccc(C(F)(F)F)n1 [Compound 03-184],7.00 to 8.00
